According to patent US20230173090A1, “COMPOSITIONS AND METHODS FOR MODULATING DOPAMINE RECEPTOR ACTIVITY” (The Regents of the University of California, priority 2020, published 2023):

What was measured:
GIRK channels = target: T1, GIRK channels (Homo sapiens, UniProt P48549, F137S); conditions: 1 µM P-D1ago labeled cells without D1R; % of 3 mM BaCh, a GIRK channel blocker; n = 5 cells
T1 sequence (P48549 1-501 F137S): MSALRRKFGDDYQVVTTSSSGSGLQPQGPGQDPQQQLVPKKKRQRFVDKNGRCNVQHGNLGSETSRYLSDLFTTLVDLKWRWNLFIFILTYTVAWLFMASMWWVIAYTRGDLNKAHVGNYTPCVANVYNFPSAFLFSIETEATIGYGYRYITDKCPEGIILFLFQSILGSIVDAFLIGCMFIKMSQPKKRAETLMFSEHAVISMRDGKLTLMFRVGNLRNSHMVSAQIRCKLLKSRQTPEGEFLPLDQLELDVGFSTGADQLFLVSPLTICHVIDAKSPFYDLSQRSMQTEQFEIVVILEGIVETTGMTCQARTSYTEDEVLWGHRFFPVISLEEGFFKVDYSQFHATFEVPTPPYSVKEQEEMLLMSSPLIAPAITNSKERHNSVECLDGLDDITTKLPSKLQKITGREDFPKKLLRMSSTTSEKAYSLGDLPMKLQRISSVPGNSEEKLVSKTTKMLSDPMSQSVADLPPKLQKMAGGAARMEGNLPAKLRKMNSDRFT

SNAP-D1R = target: T2, SNAP-D1R (Homo sapiens, UniProt P21728); assay: SNAP-D1R photoactivation, GIRK assay in HEK293T cells; type: cell-based; conditions: P-D1ago tethered to SNAP-tag fused to the N-terminus of D1R
T2 construct: expressed in transfected cells; host or cells: HEK293T
Source text: To test the ability of P-D1ago to photo-activate D1R, it was attached directly to a version of D1R that has SNAP fused to its extracellular N-terminus, which is adjacent to the ligand binding site of the receptor. SNAP-D1R was co-expressed in HEK293T cells with the G protein-coupled inwardly rectifying potassium (GIRK) channel as an effector. […] P-D1ago was attached to the M, which was co-expressed in HEK293T cells with the native D1R and the GIRK channel. […] To optimize D1R photoactivation, the geometric positioning of P-D1ago was adjusted using variants of M with “lift” peptides between the SNAP-tag and transmembrane segment. Photoactivation increased with an M variant containing a rigid, α-helical EAAAK (SEQ ID NO: 13) peptide (MEAAAK (SEQ ID NO: 16); FIG. 2B, C, and E) and decreased as the lift peptide was further extended (FIGS. 11D-11F), presumably because P-D1ago “rises” too far from the cell surface.
FIGS. 10A-10C. […] (A) Schematic representation of P-D1ago tethered to a SNAP-tag fused directly to the extracellular N-terminus of D1R. (B) Representative trace of SNAP-D1R photoactivation by P-D1ago according to the GIRK assay. […] (C) Summary of SNAP-D1R photoactivation by P-D1ago relative to a saturating concentration of DA (10 µM). n = 5 cells.

dStr-dMSN D1Rs = dStr-dMSN D1Rs (Mus musculus, UniProt Q61616); assay: Open field test, MP-D1ago in dStr-dMSNs of D1-Cre mice; conditions: trans-P-D1ago 100 µM, 1 µL bilateral dStr-infusion, mice expressing the M
Source text: The mice were 20-30 grams and 8-20 weeks old. […] Mice were maintained on a 12:12 light cycle (lights on at 07:00).
The sub-second velocity traces recorded using Biobserve were smoothed in MATLAB using a first order Butterworth filter (normalized cutoff frequency ωu = 0.02). Using original code written in MATLAB, a velocity threshold was manually set to distinguish movements from tracking artifacts, as verified by visual inspection of each movie. Movement bouts were counted when the velocity surpassed this threshold and lasted for at least 0.3 seconds. Bouts were considered finished after the velocity remained below the manually defined threshold for 0.1 seconds. The percent time moving was calculated as the time that velocity was above the movement threshold divided by the time of the entire measurement. Movement initiation frequency was calculated as the number of times velocity surpassed the movement threshold per second. Movement bout duration was calculated by averaging the duration of all movement bouts that occurred during the entire measurement. Max velocity was calculated by averaging the maximum velocity of all movement bouts that occurred during the entire measurement.

[1] = test system: membrane-anchor (M) (SNAP-tag); assay: Labeling of the membrane-anchor (M) at the cell surface: block of BG-Alexa647 binding, imaging and flow cytometry; type: cell-based; conditions: 1 µM for 1 hour, then 1.5 µM BG-Alexa647 for 30 minutes
Experimental: Untransfected or membrane-anchor (M) expressing HEK293T cells were labeled with 1.5 µM BG-TMR or BG-Alexa647 (NEB) for 20-30 minutes in the dark at 37° C. and 5% CO2 in a standard extracellular solution. Cells were then (i) mounted on an upright, scanning confocal microscope (Zeiss LSM 780) and imaged with a 20x objective or (ii) washed in DPBS and measured by flow cytometry (BD LSR II).
FIGS. 8A-8D. Photophysical properties of P-D1ago. (A) Absorbance spectra of P-D1ago under blue light (460 nm; blue) and UV light (370 nm; grey). (B) P-D1ago repeatedly switches from its trans to cis isomer with UV light and back to trans with blue light. […] Cells were incubated for 1 hour with vehicle (left upper panels), 1 µM surface block (left middle panels), or 1 µM P-D1ago (left lower panels), and were then labeled for 30 minutes with 1.5 µM BG-Alexa647. Cytosolic tdTomato was used as a transfection marker, grey bar = […]. A summary of labeling according to flow cytometry is shown on the right. unpaired two-sided t-test, p = 0.60. n = 3-6 replicates per condition. (D) M labeling as a function of the concentration of P-D1ago. The M was incubated for 1 hour with increasing concentrations of P-D1ago, and then labeled for 30 minutes with 1.5 µM BG-Alexa647. Labeling was measured by flow cytometry. […] Labeling was measured by flow cytometry. n = 3-4 replicates per condition. […]

[2] = Photophysical properties (absorbance, photoswitching); type: physicochemical
Experimental: FIGS. 8A-8D. Photophysical properties of P-D1ago. (A) Absorbance spectra of P-D1ago under blue light (460 nm; blue) and UV light (370 nm; grey). (B) P-D1ago repeatedly switches from its trans to cis isomer with UV light and back to trans with blue light. […] Cells were incubated for 1 hour with vehicle (left upper panels), 1 µM surface block (left middle panels), or 1 µM P-D1ago (left lower panels), and were then labeled for 30 minutes with 1.5 µM BG-Alexa647. Cytosolic tdTomato was used as a transfection marker, grey bar = […]. A summary of labeling according to flow cytometry is shown on the right. unpaired two-sided t-test, p = 0.60. n = 3-6 replicates per condition. (D) M labeling as a function of the concentration of P-D1ago. The M was incubated for 1 hour with increasing concentrations of P-D1ago, and then labeled for 30 minutes with 1.5 µM BG-Alexa647. Labeling was measured by flow cytometry. (E) Time course of M labeling with P-D1ago. The M was incubated for different times with 1 µM P-D1ago, and then labeled for 30 minutes with 1.5 µM BG-Alexa647. Labeling was measured by flow cytometry. n = 3-4 replicates per condition. […] This contrasts with the commercially available permeant benzylguanine analog, cell block. […] Cytosolic mTurquoise was used as a transfection marker, grey bar = […]. A summary of labeling according to flow cytometry is shown on the right. unpaired two-sided t-test, ***p < 0.001. n = 3 replicates per condition.

Sequence of dStr-dMSN D1Rs (Q61616 whole entry, the tested form may be a part): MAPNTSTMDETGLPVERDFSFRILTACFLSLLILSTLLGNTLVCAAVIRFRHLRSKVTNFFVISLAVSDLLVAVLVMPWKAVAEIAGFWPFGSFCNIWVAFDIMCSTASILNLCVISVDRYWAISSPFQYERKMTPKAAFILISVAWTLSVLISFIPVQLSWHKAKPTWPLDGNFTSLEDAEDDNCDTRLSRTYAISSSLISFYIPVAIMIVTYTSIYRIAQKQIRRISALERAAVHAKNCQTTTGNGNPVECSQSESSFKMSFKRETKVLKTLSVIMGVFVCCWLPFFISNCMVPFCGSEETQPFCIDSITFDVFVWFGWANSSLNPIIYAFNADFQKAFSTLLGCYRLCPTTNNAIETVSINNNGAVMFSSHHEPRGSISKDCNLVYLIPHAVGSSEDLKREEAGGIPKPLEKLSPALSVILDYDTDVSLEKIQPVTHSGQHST
T2 sequence (P21728 with tags, fused parts or gaps): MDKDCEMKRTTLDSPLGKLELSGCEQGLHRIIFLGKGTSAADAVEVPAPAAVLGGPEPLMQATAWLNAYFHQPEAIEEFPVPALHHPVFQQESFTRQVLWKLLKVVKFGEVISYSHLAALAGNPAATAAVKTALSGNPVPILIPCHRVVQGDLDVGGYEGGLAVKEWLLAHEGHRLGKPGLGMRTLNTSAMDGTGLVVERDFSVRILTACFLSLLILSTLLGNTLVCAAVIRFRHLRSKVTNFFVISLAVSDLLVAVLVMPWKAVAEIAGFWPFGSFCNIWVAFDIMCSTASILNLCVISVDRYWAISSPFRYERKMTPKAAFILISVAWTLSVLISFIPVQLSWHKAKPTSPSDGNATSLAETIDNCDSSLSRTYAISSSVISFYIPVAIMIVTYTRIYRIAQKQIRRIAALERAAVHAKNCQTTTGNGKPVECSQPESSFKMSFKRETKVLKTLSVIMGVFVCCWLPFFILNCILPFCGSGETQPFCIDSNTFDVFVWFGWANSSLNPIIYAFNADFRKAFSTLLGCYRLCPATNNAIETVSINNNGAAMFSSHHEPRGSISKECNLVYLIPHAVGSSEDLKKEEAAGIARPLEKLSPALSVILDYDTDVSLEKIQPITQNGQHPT

Compound: CCCN(CCc1ccc(N=Nc2ccc(NC(=O)CNC(=O)CCOCCOCCOCCOCCOCCOCCOCCOCCOCCOCCOCCOCCn3cc(CCC(=O)NCc4ccc(COc5nc(N)nc6nc[nH]c56)cc4)nn3)cc2)cc1)C1CCc2c(O)cccc2C1 (stereo not shown) [P-D1ago, Benzylguanine-azobenzene-PPHT]
- effect of switching from UV light to blue light on basal current (GIRK channels): 1.3 ± 1.0%
- SNAP-D1R photoactivation (SNAP-D1R): photoactivates D1R in response to blue light and is deactivated with UV light
- persistence of increased motor activity (dStr-dMSN D1Rs): remained high for many hours
- return of motor activity to baseline (dStr-dMSN D1Rs): returned to baseline over a two-day period
- time to increase of motor activity after start of infusion (dStr-dMSN D1Rs; dark): ≤ 30 min
- binding to the M at the cell surface (block of BG-Alexa647 binding) [1]: almost completely
- binding to the M at the cell surface (block of BG-Alexa647 binding) ([1]; listed as P-Dlago): binds efficiently
- wavelength switching trans-isomer to cis-isomer ([2]; UV light): 370 nm
- wavelength switching cis-isomer back to trans-isomer ([2]; blue light): 460 nm
- stability of the cis state ([2]; in the dark after illumination with UV light): stable in the cis state in the dark
